Measured values taken from patent publication US20230167068A1, “BENZOPYRAZOLE COMPOUND” (MEDSHINE DISCOVERY INC., priority 2019, published 2023).
pEC50, pIC50: −log10 of the molar value. Values belong to the compound of their own block, whether it stands above or below them.

How the values were obtained:
[1] = tested on: hMMP-1 promoter reporter gene in Hela cells (GR transcription repression); test: hMMP1 transcription repression activity, luciferase reporter gene screening system (hMMP1 GR transcription repression test); assay type: cell-based; details: Homo sapiens; for Emax: HeLa, maximum effect value, positive control 1000 nM dexamethasone, read-out: TR (hMMP1 transcription inhibition activity) Effect; for pIC50: absolute IC50, HeLa hMMP-1/luciferase cells, 10 nM PMA, 18 h, max concentration 1000 nM, read-out: TR (hMMP1 transcription inhibition activity) IC50
Description: Human MMP-1 promoter region (containing two AP-1 binding sites and two PEA3 sites, a total of 249bp, GenBank catalog #AF023338) was cloned into the upstream of luciferase reporter gene. The hMMP-1 promoter reporter gene was constructed and transfected into Hela cells so that luciferase production could be easily detected. A stable recombinant hMMP-⅟luciferase cell line was used for the development and validation of this experiment.
• [0377] 1) All the culture media were carefully aspirated, and the cell layer was rinsed gently with an appropriate amount of DPBS, and then aspirated. • [0378] 2) An appropriate amount of 0.05% Typsine EDTA was added and incubated in a CO2 incubator for 3-5 minutes to digest the cells. • [0379] 3) The cells were resuspended with an appropriate amount of cell culture medium. • [0380] 4) The required amount of cells were calculated. The cell concentration was 5x10^3 cells/well. • [0381] 5) The cell suspension was diluted with appropriate cell culture medium. • [0382] 6) The cell suspension was dispensed into a disposable sterile loading slot. • [0383] 7) Inoculated 30µL per well into a 384-well plate. • [0384] 8) The cell plate was placed in a 37° C. 5% CO2 incubator for 18-24 hours.
The final DMSO concentration was 0.1%. PMA needs to be protected from light during use.
hMMP1 GR transcription repression activity test • [0395] 1) Inoculated cells: Fresh cells were inoculated into 384 white experimental plates at 5x10^3 cells/30µL/well, and incubated in a 5% CO2 incubator at 37° C. for 24 hours. • [0396] 2) Compound preparation: The compound plate was prepared before the experiment, and the reference compound (dexamethasone) and the tested compound of 10x concentration were prepared. Finally, the experimental plate of 10× concentration compound was obtained. • [0397] 3) Added compound: 3.3 µL of 10x compound was transferred with Bravo and added to cell plate. Incubated for 18 hours in a 5% CO2 incubator at 37° C. • [0398] 4) 30 µL of Bright-Glo fluorescent detection reagent was transferred to the cell plate. • [0399] 5) Centrifugal incubation for 2 minutes. • [0400] 6) The fluorescence value was measured with the Envision plate reader.
Positive Control: 10 nM PMA + 1000 nM dexamethasone (0.1% DMSO)
Negative control: 10 nM PMA (0.1% DMSO)
(§1) Test compound: Maximum concentration of 1000 nM, 4-fold dilution, 10 wells in total, repeated.
(§2) Dexamethasone: Maximum concentration of 1000 nM, 4-fold dilution, 10 wells in total, repeated.
The graphing software GraphPad Prism5 was used to create the concentration curves of the test compounds and calculate the IC50 values.

[2] = tested on: MMTV promoter luciferase reporter in HeLa cell line (GR transcription activation); test: MMTV transcription activation activity, luciferase reporter gene screening system (MMTV_GR transcription activation experiment); assay type: cell-based; details: Homo sapiens; for Emax: HeLa, maximum effect value, positive control 1000 nM dexamethasone, read-out: TA (MMTV transcription activation activity) Effect; for pEC50: absolute EC50, HeLa MMTV-luciferase cells, 18 h, max concentration 1000 nM, read-out: TA (MMTV transcription activation activity) EC50
Description: The promoter of mouse mammary tumor virus (MMTV) contains specific binding sites for activating GRs (GREs). To determine the activity of the compounds, a reporter gene (luciferase) was inserted after the MMTV promoter, and this construct was expressed in a stable manner in the genome of the HeLa cell line. MMTV promoter was activated by the test compounds to induce the expression of luciferase, and its activity was detected by luminescence measurement.
• [0442] 1) All the culture media were carefully aspirated, the cell layer was rinsed gently with an appropriate amount of DPBS, and then aspirated. • [0443] 2) An appropriate amount of 0.05% Typsine EDTA was added and incubated in a CO2 incubator for 3-5 minutes to digest the cells. • [0444] 3) The cells were resuspended with an appropriate amount of cell culture medium. • [0445] 4) The amount of cells required was calculated, and the cell concentration was 4×10^3 cells/well. • [0446] 5) The cell suspension was diluted with appropriate cell culture medium. • [0447] 6) Cell suspension was dispensed into a disposable sterile loading slot. • [0448] 7) Inoculated 30 µL per well into a 384-well plate. • [0449] 8) The cell plate was placed in a 37° C. 5% CO2 incubator for 18-24 hours.
Compounds were diluted with DMSO to 1 mM, 0.25 mM, 0.0625 mM, 0.015625 mM, 0.0039 mM, 0.0009765 mM, 0.000244 mM, 0.000061 mM, 0.00001526 mM and 0.0000038125 mM, then diluted 25-fold with serum culture medium treated with activated carbon, and finally 4x concentration compound experimental plate was obtained, prepared before use.
The final DMSO experimental concentration was 0.1%.
MMTV_GR transcription activation activity experiment • [0458] 1) Inoculated cells: Fresh cells were inoculated into 384 white transparent bottom experimental plates at 4×10^3 cells/30 µL/well, and incubated at 37° C. 5% CO2 incubator for 24 hours. • [0459] 2) Compound preparation: The compound plate was prepared before the experiment, and the reference compound (dexamethasone) and the test compound of 4x concentration were prepared. Finally, the experimental plate of 4x concentration compound was obtained. • [0460] 3) Added compound: 10 µL of 4x compound was transferred with Bravo and added to cell plate. Incubated for 18 hours in a 37° C. 5% CO2 incubator. • [0461] 4) 30 µL of Bright-Glo fluorescent detection reagent was transferred to the cell plate. • [0462] 5) Centrifugal incubation for 2 minutes. • [0463] 6) The fluorescence value was measured with the Envision plate reader.
Positive control: 1000 nM dexamethasone (0.1% DMSO)
Negative control: 0.1% DMSO
as §1, §2
The graphing software GraphPad Prism5 was used to create the concentration curves of the tested compounds and calculate the IC50 values.

pIC50 [1]: 7.23
Structure (SMILES): CC(C)[C@H](NC(=O)C(C)(F)F)[C@H](Oc1ccc2c(cnn2-c2ccc3c(c2)OCO3)c1)c1ccccc1 [WX008]
Emax [1]: 91.4%

Structure (SMILES): C[C@H](NC(=O)C(C)(F)F)[C@H](Oc1ccc2c(cnn2-c2ccn3cnnc3c2)c1)c1cc(F)cc(F)c1 [WX029]
Emax [1]: 93.8%
pIC50 [1]: 7.86
Emax [2]: 62.9%
pEC50 [2]: 7.67

pIC50 [1]: 7.15
Structure (SMILES): CC(C)[C@H](NC(=O)C(C)(F)F)[C@H](Oc1ccc2c(cnn2-c2cnc3cnccn23)c1)c1ccccc1 [WX027]
Emax [1]: 79%

Structure (SMILES): C[C@H](NC(=O)C(C)(F)F)[C@H](Oc1ccc2c(cnn2-c2ccc3[nH]c(=O)oc3c2)c1)c1cc(F)cc(F)c1 [WX036]
Emax [1]: 92.8%
pIC50 [1]: 9.04
Emax [2]: 80.1%
pEC50 [2]: 8.64

Structure (SMILES): CC(C)[C@H](NC(=O)C(C)(F)F)[C@H](Oc1ccc2c(cnn2-c2cnn(C)c2)c1)c1cc(F)cc(F)c1 [WX042]
Emax [1]: 89%
pIC50 [1]: 8.86
Emax [2]: 43.5%
pEC50 [2]: 8.51

Structure (SMILES): C[C@H](NC(=O)C(C)(F)F)[C@H](Oc1ccc2c(cnn2-c2cscn2)c1)c1ccccc1 [WX052]
Emax [1]: 92.5%
pIC50 [1]: 9.01
Emax [2]: 57.8%
pEC50 [2]: 8.47

pIC50 [1]: 7.37
Structure (SMILES): CC(C)[C@H](NC(=O)C(C)(F)F)[C@H](Oc1ccc2c(cnn2-c2ccc3n[nH]c(=O)n3c2)c1)c1ccccc1 [WX031]
Emax [1]: 54.4%

Structure (SMILES): CC(C)[C@H](NC(=O)C(C)(F)F)[C@H](Oc1ccc2c(cnn2-c2cnn(C)c2)c1)c1ccccc1 [WX045]
Emax [1]: 73.6%
pIC50 [1]: 8.17
Emax [2]: 55.6%
pEC50 [2]: 7.89

pIC50 [1]: 6.92
Structure (SMILES): CC(C)[C@H](NC(=O)C(C)(F)F)[C@H](Oc1ccc2c(cnn2-c2ccc3ncccc3c2)c1)c1ccccc1 [WX007]
Emax [1]: 63.6%

Structure (SMILES): C[C@H](NC(=O)C(C)(F)F)[C@H](Oc1ccc2c(cnn2-c2ccc3nccn3c2)c1)c1ccccc1 [WX012]
Emax [2]: 103%
pEC50 [2]: 10.72

Structure (SMILES): Cc1nnc2ccc(-n3ncc4cc(O[C@H](c5cc(F)cc(F)c5)[C@H](C)NC(=O)C(C)(F)F)ccc43)cn12 [WX037]
Emax [1]: 87.8%
pIC50 [1]: 8.25
Emax [2]: 73%
pEC50 [2]: 7.90

pIC50 [1]: 8.17
Structure (SMILES): CC(C)[C@H](NC(=O)C(C)(F)F)[C@H](Oc1ccc2c(cnn2-c2ccc3c(c2)CCO3)c1)c1ccccc1 [WX005]
Emax [1]: 70.7%

Structure (SMILES): CC(C)[C@H](NC(=O)C(C)(F)F)[C@H](Oc1ccc2c(cnn2-c2ccc3nnnn3c2)c1)c1ccccc1 [WX024]
Emax [1]: 54.5%
pIC50 [1]: 7.49
Emax [2]: 31.5%
pEC50 [2]: 7.11

pIC50 [1]: 7.25
Structure (SMILES): CC(C)[C@H](NC(=O)C(C)(F)F)[C@H](Oc1ccc2c(cnn2-c2ccc3nn(C)c(=O)n3c2)c1)c1ccccc1 [WX032]
Emax [1]: 57.4%

pIC50 [1]: 7.10
Structure (SMILES): CC(C)[C@H](NC(=O)C(C)(F)F)[C@H](Oc1ccc2c(cnn2-c2ccc3c(c2)CCCO3)c1)c1ccccc1 [WX006]
Emax [1]: 73%

pIC50 [1]: 7.55
Structure (SMILES): CC(C)[C@H](NC(=O)C(C)(F)F)[C@H](Oc1ccc2c(cnn2-c2cn3cnnc3cn2)c1)c1ccccc1 [WX025]
Emax [1]: 76.1%

pIC50 [1]: 7.94
Structure (SMILES): CC(C)[C@H](NC(=O)C(C)(F)F)[C@H](Oc1ccc2c(cnn2-c2ccc3noc(=O)n3c2)c1)c1ccccc1 [WX033]
Emax [1]: 71.8%
